Read-outs that look alike come from different tables or passages of the source. Each block holds one molecule with its values, some of them ahead of it.
Legend:
in vitro [1] = details: rat, microsomes, pH 7.47
[2] = Liver microsomal metabolism stability test; details: rat, microsomes, pH 7.47
MDCK cells [3] = tested on: MDCK cells
[4] = MDCK cell permeability test; details: dog, MDCK, 90 min; for Papp A→B at 90 min: Apparent permeability coefficient A→B; for Papp B→A at 90 min: Apparent permeability coefficient B→A
[5] = tested on: human breast adenocarcinoma (MCF-7) cells; assay: Anti-proliferation test (MTT colorimetry); type: cell-based; details: MCF7, MCF-7, 72 h
Procedure: (§1) The compound of formula 1 (prepared in embodiment 1), and the compound of formula 2 (prepared in embodiment 2) are given at different concentrations to human hepatocellular carcinoma (HepG2) cells, human prostate carcinoma (PC3) cells, human cervical carcinoma (HeLa) cells, human breast adenocarcinoma (MCF-7) cells, and human leukemia (K562) cells; all the groups are incubated 72 h in an incubator containing 5% of CO2 at 37° C., and then inhabitation ratios of the compounds to the tumor cells are measured by using methyl thiazolyl tetrazolium (MTT) colorimetry, and results are shown in table 1.

[6] = tested on: human cervical carcinoma (HeLa) cells; assay: Anti-proliferation test (MTT colorimetry); type: cell-based; details: 72 h
Procedure: as §1

[7] = tested on: human hepatocellular carcinoma (HepG2) cells; assay: Anti-proliferation test (MTT colorimetry); type: cell-based; details: HepG2, 72 h
Procedure: as §1

[8] = tested on: human leukemia (K562) cells; assay: Anti-proliferation test (MTT colorimetry); type: cell-based; details: K562, 72 h
Procedure: as §1

[9] = tested on: human prostate carcinoma (PC3) cells; assay: Anti-proliferation test (MTT colorimetry); type: cell-based; details: PC-3, PC3, 72 h
Procedure: as §1

tubulin = assay: Tubulin polymerization experiment (Cytoskeleton Tubulin Polymerization Assay Kit); type: biochemical
Procedure: The tubulin polymerization experiment is carried out according to the specifications of Tubulin Polymerization Assay Kit of Cytoskeleton Corporation.

in vitro [10] = details: human, microsomes, pH 7.47
in vitro [11] = details: mouse, liver microsomes, pH 7.47
in vitro [12] = details: dog, microsomes, pH 7.47
in vitro [13] = details: monkey, microsomes, pH 7.47
MDCK cells [14] = assay: MDCK cell permeability test
P-gp = assay: MDCK cell permeability test; details: dog, MDCK
[15] = Liver microsomal metabolism stability test; details: mouse
[16] = Recovery rate A→B, 2nd line of the compound (condition not given)
[17] = Recovery rate A→B, 1st line of the compound (condition not given; method: without / with 10 μM cyclosporine A)
[18] = Recovery rate B→A, 1st line of the compound (condition not given)
[19] = Recovery rate B→A, 2nd line of the compound (condition not given)
[20] = 1st line of the compound (condition not given)
[21] = 2nd line of the compound (condition not given)

SMILES: COc1ccc2[nH]c([S+]([O-])Cc3ncc(C)c(OC)c3C)nc2c1 (stereo not shown) [omeprazole, reference compound]
microsomal CLint at 1 µM (in vitro [1]): 88.3 µL/min/mg
half-life at 1 µM [2]: 15.7 min

PGP substrate judgment (MDCK cells [3]): Yes
recovery at 90 min [4, 16]: 95.4%
recovery at 90 min [4, 17]: 106%
recovery at 90 min [4, 18]: 102%
recovery at 90 min [4, 19]: 100%
SMILES: CC(C)CN(C[C@@H](O)[C@H](Cc1ccccc1)NC(=O)O[C@H]1CCOC1)S(=O)(=O)c1ccc(N)cc1 [Amprenavir, amprenavir, reference compound]

IC50 [5]: 0.00336 µM
IC50 [6]: 0.0132 µM
IC50 [7]: 0.0164 µM
IC50 [8]: 0.00833 µM
IC50 [9]: 0.0235 µM
IC50 (tubulin; read-out: tubulin polymerization inhibiting IC50): 5.33 µM
half-life at 1 µM (in vitro [10]): 12.9 min
microsomal CLint at 1 µM (in vitro [10]): 108 µL/min/mg
half-life at 1 µM (in vitro [11]): 17.8 min
microsomal CLint at 1 µM (in vitro [11]): 78 µL/min/mg
half-life at 1 µM (in vitro [1]): 24 min
microsomal CLint at 1 µM (in vitro [1]): 57.7 µL/min/mg
half-life at 1 µM (in vitro [12]): 7.5 min
microsomal CLint at 1 µM (in vitro [12]): 185 µL/min/mg
half-life at 1 µM (in vitro [13]): 1.3 min
microsomal CLint at 1 µM (in vitro [13]): 1070 µL/min/mg
Papp A→B at 90 min [4, 20]: 7.4 ×10⁻⁶ cm/s
Papp A→B at 90 min [4, 21]: 12.4 ×10⁻⁶ cm/s
Papp B→A at 90 min [4, 20]: 32.6 ×10⁻⁶ cm/s
Papp B→A at 90 min [4, 21]: 6.9 ×10⁻⁶ cm/s
recovery at 90 min [4, 16]: 59.2%
recovery at 90 min [4, 17]: 89.4%
recovery at 90 min [4, 18]: 91.3%
recovery at 90 min [4, 19]: 79.4%
PGP substrate judgment (MDCK cells [14]; MDCK cells): is the PGP substrate and Yes
Permeability Judgment (MDCK cells [14]; MDCK cells): moderate permeability
Efllux ratio (MDCK cells [14]; Papp(B→A)/Papp(A→B), 2nd line of the compound (condition not given)): 0.6
efflux ratio at 90 min (P-gp): 4.4
metabolism in the liver microsomes (in words) [15]: faster
SMILES: CCOc1cccc(Nc2nn(C)c3c2Cc2cc(OCC)c(OCC(=O)NO)cc2-3)c1 [LL-02]
inhibition of tubulin polymerization (in words) (tubulin; FIGS. 1 and 2): able to inhibit tubulin polymerization

Source: patent publication US10059674B2, “Design, synthesis, and biological evaluation of 1-methyl-1, 4-dihyrdoindeno[1,2-C]pyrazole analogues as potential anticaner agents targeting tubulin colchicine binding site” (ACT PHARMA CO., LTD., priority 2016, dated 2018)
